The values that follow come from the SangsterLogP compilation.

Take `CCC(C)OC(Cn1ccnc1)c1ccc(Cl)cc1Cl` (stereo unspecified): the logP stood at 4.5. To `C=C(C)COC(Cn1ccnc1)c1ccc(Cl)cc1Cl` (stereo unspecified) belongs 4.26; to `Clc1ccc(C(Cn2ccnc2)OCC2CCCCC2)c(Cl)c1` (stereo unspecified), 6.5; to `CCCCC(CC)COC(Cn1ccnc1)c1ccc(Cl)cc1Cl` (stereo unspecified), 6.89. Molecule `CCCC(C)OC(Cn1ccnc1)c1ccc(Cl)cc1Cl` (stereo unspecified) showed a logP of 4.9.

For the molecule `CCC(CC)COC(Cn1ccnc1)c1ccc(Cl)cc1Cl` (stereo unspecified), the logP was determined as 6.24.

In turn, `CC(C)=CCOC(Cn1ccnc1)c1ccc(Cl)cc1Cl` (stereo unspecified) came in with a logP of 5.04.

The molecule `C=CCCCOC(Cn1ccnc1)c1ccc(Cl)cc1Cl` (stereo unspecified) returned a logP of 4.94. `CC(C)CCOC(Cn1ccnc1)c1ccc(Cl)cc1Cl` (stereo unspecified) showed a logP of 5.71. `CCC(CC)OC(Cn1ccnc1)c1ccc(Cl)cc1Cl` (stereo unspecified): the logP was found to be 5.13.

Molecule `C=CCCOC(Cn1ccnc1)c1ccc(Cl)cc1Cl` (stereo unspecified) gave a logP of 4.33.
